Data: ChEMBL document CHEMBL1201862, “PubChem BioAssay data set” (2004)
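Where inhibition never reached the appropriate level, the endpoint shown equals the highest concentration tested. Otherwise, values were interpolated linearly from a five-concentration, 48-hour dose response in 96-well plates. GI50 = concentration required for 50% inhibition of growth.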 Calls of active or inactive are those of the source. Rule as the data show it: active = GI50 up to about 1.1 µM and inactive = higher.

How the values were obtained:
Assay in all cases: inhibition of tumour cell growth, NCI panel, 48 h
CCRF-CEM = test system: CCRF-CEM
RXF 393 = test system: RXF 393
A498 = test system: A498
NCI/ADR-RES = test system: NCI/ADR-RES
SF-539 = test system: SF-539
T47D = test system: T47D
SF-268 = test system: SF-268
DU-145 = test system: DU-145
IGROV-1 = test system: IGROV-1
ACHN = test system: ACHN
NCI-H226 = test system: NCI-H226
TK-10 = test system: TK-10
MCF7 = test system: MCF7
SN12C = test system: SN12C
MDA-MB-435 = test system: MDA-MB-435
SK-MEL-2 = test system: SK-MEL-2
K562 = test system: K562
786-0 = test system: 786-0
HL-60 = test system: HL-60
SR = test system: SR

Structure (SMILES) | GI50 (CCRF-CEM) | GI50 (RXF 393) | GI50 (A498) | GI50 (NCI/ADR-RES) | GI50 (SF-539) | GI50 (T47D) | GI50 (SF-268) | GI50 (DU-145) | GI50 (IGROV-1) | GI50 (ACHN) | GI50 (NCI-H226) | GI50 (TK-10) | GI50 (MCF7) | GI50 (SN12C) | GI50 (MDA-MB-435) | GI50 (SK-MEL-2) | GI50 (K562) | GI50 (786-0) | GI50 (HL-60) | GI50 (SR)
COc1ccc(C2CC(c3c(O)ccc4ccccc34)=NN2c2ccc([N+](=O)[O-])cc2[N+](=O)[O-])cc1OC (centres undefined) | 6.03 µM (inactive) | 24.4 µM (inactive) | 7.18 µM (inactive) | 3.66 µM (inactive) | 26.1 µM (inactive) | 6.25 µM (inactive) | 25.4 µM (inactive) | 30.3 µM (inactive) | 13 µM (inactive) | 18.5 µM (inactive) | 13.9 µM (inactive) | 24.3 µM (inactive) | 17.9 µM (inactive) | 29.8 µM (inactive) | 24 µM (inactive) | 19.4 µM (inactive) | 3.47 µM (inactive) | 29 µM (inactive) |  | 
O=C1Oc2ccccc2C(=O)/C1=C\NC(=S)c1ccncc1 |  |  |  | > 100 µM (inactive) | > 100 µM (inactive) | > 100 µM (inactive) |  | > 100 µM (inactive) | 67.1 µM (inactive) | 53.3 µM (inactive) | > 100 µM (inactive) | > 100 µM (inactive) | > 100 µM (inactive) | > 100 µM (inactive) | 98.4 µM (inactive) | 42.3 µM (inactive) |  | > 100 µM (inactive) | 3.35 µM (inactive) | 
COc1ccc(/C=C2\NC(=S)N(/C=C3\C(=O)Oc4ccccc4C3=O)C2=O)cc1OC | 45 µM (inactive) | 77.6 µM (inactive) | 54 µM (inactive) | > 100 µM (inactive) | > 100 µM (inactive) | > 100 µM (inactive) | > 100 µM (inactive) | > 100 µM (inactive) | 78.3 µM (inactive) | 91 µM (inactive) | > 100 µM (inactive) | > 100 µM (inactive) | > 100 µM (inactive) | > 100 µM (inactive) | > 100 µM (inactive) | > 100 µM (inactive) | > 100 µM (inactive) | > 100 µM (inactive) | 22.4 µM (inactive) | 
O=[N+]([O-])C(/C(Cl)=C(/Cl)N1CCOCC1)=C1\NCCO1 | > 100 µM (inactive) |  | > 100 µM (inactive) | > 100 µM (inactive) | > 100 µM (inactive) | > 100 µM (inactive) | > 100 µM (inactive) | > 100 µM (inactive) |  | > 100 µM (inactive) | > 100 µM (inactive) |  | > 100 µM (inactive) | > 100 µM (inactive) | > 100 µM (inactive) | > 100 µM (inactive) |  | > 100 µM (inactive) |  | 
O=P(O)(O)CC1OC(CO)C(O)C1O (centres undefined) | > 100 µM (inactive) | > 100 µM (inactive) | > 100 µM (inactive) | > 100 µM (inactive) | > 100 µM (inactive) | > 100 µM (inactive) | > 100 µM (inactive) | > 100 µM (inactive) | > 100 µM (inactive) | > 100 µM (inactive) | > 100 µM (inactive) | > 100 µM (inactive) | > 100 µM (inactive) | > 100 µM (inactive) | > 100 µM (inactive) | > 100 µM (inactive) | > 100 µM (inactive) | > 100 µM (inactive) | > 100 µM (inactive) | 
CCNC1CC(C(C)(C)NCC)CC=C1C (centres undefined) | > 100 µM (inactive) |  |  | > 100 µM (inactive) | > 100 µM (inactive) | > 100 µM (inactive) | > 100 µM (inactive) | > 100 µM (inactive) | > 100 µM (inactive) |  |  | > 100 µM (inactive) | > 100 µM (inactive) | > 100 µM (inactive) | > 100 µM (inactive) |  | > 100 µM (inactive) | > 100 µM (inactive) | > 100 µM (inactive) | > 100 µM (inactive)
NS(=O)(=O)c1cc2c(cc1Cl)N=C(CCC(=O)O)NS2(=O)=O |  | > 100 µM (inactive) | > 100 µM (inactive) | > 100 µM (inactive) | > 100 µM (inactive) | > 100 µM (inactive) | > 100 µM (inactive) | > 100 µM (inactive) | > 100 µM (inactive) | > 100 µM (inactive) | > 100 µM (inactive) | > 100 µM (inactive) | > 100 µM (inactive) | > 100 µM (inactive) | > 100 µM (inactive) | > 100 µM (inactive) | > 100 µM (inactive) | > 100 µM (inactive) |  | 
O=c1oc(-c2ccc(O)c(O)c2)cc2cccc(O)c12 [THUNBERGINOL A] | 0.998 µM (active) | 18.9 µM (inactive) | 19.9 µM (inactive) | 14.6 µM (inactive) | 23.9 µM (inactive) | 0.871 µM (active) | 19.8 µM (inactive) | 23.8 µM (inactive) | 6.19 µM (inactive) | 21.4 µM (inactive) |  | 4.9 µM (inactive) | 9.57 µM (inactive) | 14.4 µM (inactive) | 24.2 µM (inactive) | 26.1 µM (inactive) | 22.1 µM (inactive) | 19.6 µM (inactive) | 17.1 µM (inactive) | 
